From patent US20110105326A1, “Method for Enhancing the Rainfastness of Glyphosate” (BASF SE, priority 2008, published 2011)

Tests used:
Format in all cases: in vivo
[1] = system: Brachiaria decumbens (BRADE); test: herbicidal action with/without simulated rainfall after treatment, Brachiaria decumbens; design: key: % damage vs untreated control; 0 = no damage, 100 = complete destruction; conditions: 180 g/ha lactofen, 1080 g/ha glyphosate; for herbicidal action against Brachiaria decumbens (BRADE): control without simulated rainfall, Example 14.1; for herbicidal action aaainst BRADE: simulated rainfall 30 min after treatment, Example 14.2; for herbicidal action against BRADE: simulated rainfall 6 hours after treatment, Example 14.3
Protocol: (§1) The enhancement of the rainfastness of glyphosate was determined via the herbicidal activity of the mixture comprising glyphosate and the respective rainfastness enhancing herbicidal component B as well as of the single herbicidal components in relation to simulated rainfall at different time intervals.
(§2) The evaluation of the damage caused by the method and the compositions the according to the present invention and the single herbicidal components was carried out using a scale from 0 to 100%, compared to the untreated control plots. Here, 0 means no damage and 100 means complete destruction of the plants of a respective weed or crop species.
(§3) The application was performed with a fixed spayer system with air pressurization and with a tank spray volume of two liters. The speed of the spray device over the plants was adjusted for a spray volume of 200 I/ha. The spray device was a spray barr with four nozzles from the type Teejet XR 11002VS with a space of 50 cm between each nozzle.
(§4) The application was performed at a weed stage of 6 to 8 leaves. After the application of the formulated herbicides the leaves were washed through rain of 20 mm using a fixed rain simulator system at following time interval: 15 min, 30 min, 1, 2, 3, 4 and 6 hours after treatment.

[2] = system: Euphorbia heterophylla (EUPHO); test: herbicidal action with/without simulated rainfall after treatment, Euphorbia heterophylla; design: key: % damage vs untreated control: 0 = no damage, 100 = complete destruction; conditions: 180 g/ha lactofen, 1080 g/ha glyphosate; for herbicidal action against Euphorbia heterophylla (EUPHO): control without simulated rainfall, Example 13.1
Protocol: as §1, §2, §3, §4

[3] = system: Echinochloa colonum (ECHCO); test: herbicidal action with/without simulated rainfall after treatment, Echinochloa colonum; design: key: % damage vs untreated control; 0 = no damage, 100 = complete destruction; conditions: 180 g/ha lactofen, 1080 g/ha glyphosate; for herbicidal action against Echinochloa colonum (ECHCO): control without simulated rainfall, Example 12.1
Protocol: as §1, §2, §3, §4

With `CCOC(=O)C(C)OC(=O)c1cc(Oc2ccc(C(F)(F)F)cc2Cl)ccc1[N+](=O)[O-]` (stereo not drawn) [Lactofen, lactofen] the “herbicidal action against Brachiaria decumbens (BRADE)” value (from here on “herbicidal action … (BRADE)”) ([1]; 1 DAA) was 5, the “herbicidal action … (BRADE)” value ([1]; 2 DAA) was 9 and the “herbicidal action … (BRADE)” value ([1]; 3 DAA) was 8.66. The “herbicidal action … (BRADE)” value ([1]; 7 DAA) was 14, the “herbicidal action aaainst BRADE” value ([1]; 1 DAA) was 5 and the “herbicidal action aaainst BRADE” value ([1]; 2 DAA) was 18.33. For the same compound, the “herbicidal action aaainst BRADE” value ([1]; 3 DAA) was 24.66, the “herbicidal action aaainst BRADE” value ([1]; 7 DAA) was 26 and the “herbicidal action against BRADE” value ([1]; 1 DAA) was 9.66. The “herbicidal action against BRADE” value ([1]; 2 DAA) was 16, the “herbicidal action against BRADE” value ([1]; 3 DAA) was 22.66 and the “herbicidal action against BRADE” value ([1]; 7 DAA) was 25.33. The “herbicidal action against Euphorbia heterophylla (EUPHO)” value (from here on “herbicidal action … (EUPHO)”) ([2]; 1 DAA) was 9.66, the “herbicidal action … (EUPHO)” value ([2]; 2 DAA) was 19 and the “herbicidal action … (EUPHO)” value ([2]; 3 DAA) was 37. For the same compound, the “herbicidal action … (EUPHO)” value ([2]; 7 DAA) was 47, the “herbicidal action against EUPHO” value ([2]; simulated rainfall 15 min after treatment, 1 DAA, Example 13.2) was 20.66 and the “herbicidal action against EUPHO” value ([2]; simulated rainfall 15 min after treatment, 2 DAA, Example 13.2) was 39. The “herbicidal action against EUPHO” value ([2]; simulated rainfall 15 min after treatment, 3 DAA, Example 13.2) was 40, the “herbicidal action against EUPHO” value ([2]; simulated rainfall 15 min after treatment, 7 DAA, Example 13.2) was 74.33 and the “herbicidal action against EUPHO” value ([2]; simulated rainfall 2 hours after treatment, 1 DAA, Example 13.3) was 18. For the same compound, the “herbicidal action against EUPHO” value ([2]; simulated rainfall 2 hours after treatment, 2 DAA, Example 13.3) was 42, the “herbicidal action against EUPHO” value ([2]; simulated rainfall 2 hours after treatment, 3 DAA, Example 13.3) was 39 and the “herbicidal action against EUPHO” value ([2]; simulated rainfall 2 hours after treatment, 7 DAA, Example 13.3) was 73.33. For the same compound, the “herbicidal action against Echinochloa colonum (ECHCO)” value (“herbicidal action … (ECHCO)” below) ([3]; 2 DAA) was 61.66, the “herbicidal action … (ECHCO)” value ([3]; 3 DAA) was 76.66 and the “herbicidal action … (ECHCO)” value ([3]; 7 DAA) was 75.33. For the same compound, the “herbicidal action against ECHCO” value ([3]; simulated rainfall 15 min after treatment, 2 DAA, Example 12.2) was 46.66, the “herbicidal action against ECHCO” value ([3]; simulated rainfall 15 min after treatment, 3 DAA, Example 12.2) was 57.66 and the “herbicidal action against ECHCO” value ([3]; simulated rainfall 15 min after treatment, 7 DAA, Example 12.2) was 46.33. For the same compound, the “herbicidal action against ECHCO” value ([3]; simulated rainfall 30 min after treatment, 2 DAA, Example 12.3) was 53, the “herbicidal action against ECHCO” value ([3]; simulated rainfall 30 min after treatment, 3 DAA, Example 12.3) was 60 and the “herbicidal action against ECHCO” value ([3]; simulated rainfall 30 min after treatment, 7 DAA, Example 12.3) was 46. For the same compound, the “herbicidal action against ECHCO” value ([3]; simulated rainfall 2 hours after treatment, 2 DAA, Example 12.4) was 48.33, the “herbicidal action against ECHCO” value ([3]; simulated rainfall 2 hours after treatment, 3 DAA, Example 12.4) was 63.33 and the “herbicidal action against ECHCO” value ([3]; simulated rainfall 2 hours after treatment, 7 DAA, Example 12.4) was 39.33.
